According to publication PMC7914897, “Cytotoxic Potential of a-Azepano- and 3-Amino-3,4-SeCo-Triterpenoids” (International Journal of Molecular Sciences, 2021):
Read-outs that look alike come from different tables or passages of the source.

Columns and labels:
UO-31 (Renal cancer) = assay: NCI-60 screen (SRB, 48 h); conditions: Homo sapiens
[1] = tested on: NCI-H460 (NSC lung cancer); assay: NCI-60 screen (SRB, 48 h); conditions: Homo sapiens
Renal Cancer subpanel = assay: NCI-60 screen, subpanel; conditions: Homo sapiens
SK-OV-3 (Ovarian cancer) = assay: NCI-60 screen (SRB, 48 h); conditions: Homo sapiens
BT-549 (Breast cancer) = assay: NCI-60 screen (SRB, 48 h); format: cell-based; conditions: Homo sapiens
M14 (Melanoma) = assay: NCI-60 screen (SRB, 48 h)
DU-145 (Prostate cancer) = assay: NCI-60 screen (SRB, 48 h); conditions: Homo sapiens
Breast cancer subpanel = assay: NCI-60 screen, subpanel; conditions: Homo sapiens
ACHN (Renal cancer) = assay: NCI-60 screen (SRB, 48 h); conditions: Homo sapiens
COLO 205 (Colon cancer) = assay: NCI-60 screen (SRB, 48 h)
NSC lung cancer subpanel = assay: NCI-60 screen, subpanel; conditions: Homo sapiens
MCF7 (Breast cancer) = assay: NCI-60 screen (SRB, 48 h); conditions: Homo sapiens
HCC-2998 (Colon cancer) = assay: NCI-60 screen (SRB, 48 h); conditions: Homo sapiens
PC-3 (Prostate cancer) = assay: NCI-60 screen (SRB, 48 h); conditions: Homo sapiens
Ovarian Cancer subpanel = assay: NCI-60 screen, subpanel; conditions: Homo sapiens
Melanoma subpanel = assay: NCI-60 screen, subpanel; conditions: Homo sapiens
SW-620 (Colon cancer) = assay: NCI-60 screen (SRB, 48 h); conditions: Homo sapiens
[2] = tested on: NCI-H226 (NSC lung cancer); assay: NCI-60 screen (SRB, 48 h); conditions: Homo sapiens
OVCAR-3 (Ovarian cancer) = assay: cells; conditions: Homo sapiens
SNB-75 (CNS cancer) = assay: NCI-60 screen (SRB, 48 h); conditions: Homo sapiens
A498 (Renal cancer) = assay: NCI-60 screen (SRB, 48 h); conditions: Homo sapiens
[3] = tested on: NCI-H322M (NSC lung cancer); assay: NCI-60 screen (SRB, 48 h); conditions: Homo sapiens
HOP-62 (NSC lung cancer) = assay: NCI-60 screen (SRB, 48 h); conditions: Homo sapiens
UACC-62 (Melanoma) = assay: NCI-60 screen (SRB, 48 h); conditions: Homo sapiens
SK-MEL-2 (Melanoma) = assay: NCI-60 screen (SRB, 48 h); conditions: Homo sapiens
RXF 393 (Renal cancer) = assay: NCI-60 screen (SRB, 48 h); conditions: Homo sapiens
LOX IMVI (Melanoma) = assay: NCI-60 screen (SRB, 48 h); format: cell-based; conditions: Homo sapiens
[4] = tested on: panel of approximately 60 cancer cell lines; assay: NCI-60 screen (SRB, 48 h), full panel

CC1(C)CC[C@]2(CO)CC[C@]3(C)C(=CC[C@@H]4[C@@]5(C)CCCNC(C)(C)[C@@H]5CC[C@]43C)[C@@H]2C1 [Compound 3, azepanoerythrodiol]
GI50 (UO-31 (Renal cancer); UO-31): 10.5 µM | IC (TGI) (UO-31 (Renal cancer); UO-31, 48 h, read-out: TGI): 25.5 µM | CC50 (UO-31 (Renal cancer); UO-31, read-out: LC50): 62.1 µM | GI50 ([1]; NCI-H460): 1.92 µM | IC (TGI) ([1]; NCI-H460, 48 h, read-out: TGI): 3.8 µM | CC50 ([1]; NCI-H460, read-out: LC50): 7.56 µM | IC (TGI) (Renal Cancer subpanel; 48 h, read-out: TGI MG_MID): 17.4 µM | GI50 (Renal Cancer subpanel; read-out: GI50 MG_MID): 5.94 µM | CC50 (Renal Cancer subpanel; read-out: LC50 MG_MID): 49.7 µM | GI50 (SK-OV-3 (Ovarian cancer); SK-OV-3): 14.1 µM | IC (TGI) (SK-OV-3 (Ovarian cancer); SK-OV-3, 48 h, read-out: TGI): 28.9 µM | CC50 (SK-OV-3 (Ovarian cancer); SK-OV-3, read-out: LC50): 59.2 µM | GI50 (BT-549 (Breast cancer); BT-549): 1.01 µM | IC (TGI) (BT-549 (Breast cancer); BT-549, 48 h): 24.5 µM | CC50 (BT-549 (Breast cancer); BT-549, read-out: LC50 (the source's name)): 59.2 µM | GI50 (M14 (Melanoma); Homo sapiens, M14): 2.04 µM | IC (TGI) (M14 (Melanoma); Homo sapiens, M14, 48 h, read-out: TGI): 3.87 µM | CC50 (M14 (Melanoma); Homo sapiens, M14, read-out: LC50): 7.34 µM | Growth % of the Most Sensitive Cell Lines (M14 (Melanoma); M14, 1 dose 10 µM): −82.21% | GI50 (DU-145 (Prostate cancer); DU-145): 2.3 µM | IC (TGI) (DU-145 (Prostate cancer); DU-145, 48 h, read-out: TGI): 4.7 µM | CC50 (DU-145 (Prostate cancer); DU-145, read-out: LC50): 9.61 µM | IC (TGI) (Breast cancer subpanel; 48 h, read-out: TGI MG_MID): 14.6 µM | GI50 (Breast cancer subpanel; read-out: GI50 MG_MID): 3.12 µM | CC50 (Breast cancer subpanel; read-out: LC50 MG_MID): 43.6 µM | GI50 (ACHN (Renal cancer)): 3.44 µM | IC (TGI) (ACHN (Renal cancer); 48 h, read-out: TGI): 11.5 µM | CC50 (ACHN (Renal cancer); read-out: LC50): 38.3 µM | Growth % of the Most Sensitive Cell Lines (COLO 205 (Colon cancer); COLO 205, 1 dose 10 µM): −88.44% | GI50 (COLO 205 (Colon cancer); Homo sapiens, COLO 205): 1.83 µM | IC (TGI) (COLO 205 (Colon cancer); Homo sapiens, COLO 205, 48 h, read-out: TGI): 3.25 µM | CC50 (COLO 205 (Colon cancer); Homo sapiens, COLO 205, read-out: LC50): 5.77 µM | IC (TGI) (NSC lung cancer subpanel; 48 h, read-out: TGI MG_MID): 17.8 µM | GI50 (NSC lung cancer subpanel; read-out: GI50 MG_MID): 2.87 µM | CC50 (NSC lung cancer subpanel; read-out: LC50 MG_MID): 44.1 µM | GI50 (MCF7 (Breast cancer); MCF7): 2.16 µM | IC (TGI) (MCF7 (Breast cancer); MCF7, 48 h, read-out: TGI): 5.54 µM | CC50 (MCF7 (Breast cancer); MCF7, read-out: LC50): 22.7 µM | GI50 (HCC-2998 (Colon cancer); HCC 2998): 1.89 µM | IC (TGI) (HCC-2998 (Colon cancer); HCC 2998, 48 h, read-out: TGI): 3.81 µM | CC50 (HCC-2998 (Colon cancer); HCC 2998, read-out: LC50): 7.69 µM | GI50 (PC-3 (Prostate cancer); PC-3): 1.48 µM | IC (TGI) (PC-3 (Prostate cancer); PC-3, 48 h, read-out: TGI): 3.33 µM | CC50 (PC-3 (Prostate cancer); PC-3, read-out: LC50): 7.47 µM | IC (TGI) (Ovarian Cancer subpanel; 48 h, read-out: TGI MG_MID): 19.1 µM | GI50 (Ovarian Cancer subpanel; read-out: GI50 MG_MID): 7.75 µM | CC50 (Ovarian Cancer subpanel; read-out: LC50 MG_MID): 45.6 µM | IC (TGI) (Melanoma subpanel; 48 h, read-out: TGI MG_MID): 4.31 µM | GI50 (Melanoma subpanel; read-out: GI50 MG_MID): 2.05 µM | CC50 (Melanoma subpanel; read-out: LC50 MG_MID): 12.2 µM | GI50 (SW-620 (Colon cancer); SW-620): 1.91 µM | IC (TGI) (SW-620 (Colon cancer); SW-620, 48 h, read-out: TGI): 4 µM | CC50 (SW-620 (Colon cancer); SW-620, read-out: LC50): 8.35 µM | GI50 ([2]; NCI-H226): 1.13 µM | IC (TGI) ([2]; NCI-H226, 48 h, read-out: TGI): 28.5 µM | CC50 ([2]; NCI-H226, read-out: LC50): 71.8 µM | GI50 (OVCAR-3 (Ovarian cancer); OVCAR-3): 1.96 µM | IC (TGI) (OVCAR-3 (Ovarian cancer); OVCAR-3, 48 h, read-out: TGI): 3.84 µM | CC50 (OVCAR-3 (Ovarian cancer); OVCAR-3, read-out: LC50): 7.52 µM | GI50 (SNB-75 (CNS cancer); SNB-75): 9.84 µM | IC (TGI) (SNB-75 (CNS cancer); SNB-75, 48 h, read-out: TGI): 2.17 µM | CC50 (SNB-75 (CNS cancer); SNB-75, read-out: LC50): 47.1 µM | GI50 (A498 (Renal cancer); A498): 16.7 µM | IC (TGI) (A498 (Renal cancer); A498, 48 h, read-out: TGI): 38.1 µM | CC50 (A498 (Renal cancer); A498, read-out: LC50): 86.7 µM | GI50 [3]: 3.69 µM | IC (TGI) ([3]; 48 h, read-out: TGI): 10.3 µM | CC50 ([3]; read-out: LC50): 36 µM | GI50 (HOP-62 (NSC lung cancer); HOP-62): 5.89 µM | IC (TGI) (HOP-62 (NSC lung cancer); HOP-62, 48 h, read-out: TGI): 20.4 µM | CC50 (HOP-62 (NSC lung cancer); HOP-62, read-out: LC50): 58.9 µM | GI50 (UACC-62 (Melanoma); UACC-62): 1.92 µM | IC (TGI) (UACC-62 (Melanoma); UACC-62, 48 h, read-out: TGI): 3.93 µM | CC50 (UACC-62 (Melanoma); UACC-62, read-out: LC50): 8.07 µM | GI50 (SK-MEL-2 (Melanoma); SK-MEL-2): 3.25 µM | IC (TGI) (SK-MEL-2 (Melanoma); SK-MEL-2, 48 h, read-out: TGI): 8.17 µM | CC50 (SK-MEL-2 (Melanoma); SK-MEL-2, read-out: LC50): 36.7 µM | GI50 (RXF 393 (Renal cancer); RXF 393): 2.88 µM | IC (TGI) (RXF 393 (Renal cancer); RXF 393, 48 h, read-out: TGI): 11.7 µM | CC50 (RXF 393 (Renal cancer); RXF 393, read-out: LC50): 48.6 µM | IC (TGI) (LOX IMVI (Melanoma); 48 h): 3.19 µM | activity at 10 µM (LOX IMVI (Melanoma); 48 h, 1 dose 10 µM, read-out: Growth % of the Most Sensitive Cell Lines): -88.2% | GI50 (LOX IMVI (Melanoma); read-out: GI50): 1.68 µM | CC50 (LOX IMVI (Melanoma); read-out: LC50 (the source's name)): 6.05 µM | Positive Cytostatic Effect (cell lines with percent growth 0 to 50 / total) ([4]; 1 dose 10 µM): 20/57 | Positive Cytotoxic Effect (cell lines with percent growth < 0 / total) ([4]; 1 dose 10 µM): 19/57 | number of cancer cell lines the compound was active against ([4]; 1 dose 10 µM): 30 cell lines | activity at 10 µM ([4]; Homo sapiens, 48 h, read-out: Mean Growth, %): 18.9% | activity at 10 µM ([4]; Homo sapiens, 48 h, read-out: Range of Growth, %): -88.4 to 89.3% | IC (TGI) ([4]; Homo sapiens, 48 h, read-out: TGI MG_MID60, average over all cell lines): 15.5 µM | GI50 ([4]; Homo sapiens, read-out: GI50 MG_MID60): 3.83 µM | GI50 ([4]; Homo sapiens, read-out: GI50 against all human tumor cell lines): < 10 µM | GI50 ([4]; Homo sapiens, read-out: GI50 against the most sensitive cell lines): 0.2 to 0.94 µM | CC50 ([4]; Homo sapiens, read-out: LC50 MG_MID60, average over all cell lines): 32 µM | selectivity indexes at TGI level (subpanels) ([4]; MG_MID60/subpanel MG_MID): 3.59–4.69
